A word on the IC50: it is the concentration needed to halve the response being measured.

A value given as a limit tells only on which side of the number the result lay.

This is an account of results in US12516044B2, “Heterocyclic compounds as immunomodulators” (Incyte Corporation, priority 2015, dated 2026).

The test has as its target T1, PD-1/PD-L1 protein/protein interaction (Homo sapiens, UniProt Q9NZQ7).
T1 construct: Recombinant human PD-L1 protein (19-238) with a His-tag at the C-terminus; purchased AcroBiosystems PD1-H5229 (PD-L1-His); PD1-H5257 (PD-1-Fc)
Nature of the test: PD-1/PD-L1 Homogeneous Time-Resolved Fluorescence (HTRF) Binding Assay. The note with it: recombinant human PD-L1 (19-238) His-tag and human PD-1 (25-167) Fc tag; 25° C., PBS pH 7.4. The method, then: Example A. PD-1/PD-L1 Homogeneous Time-Resolved Fluorescence (HTRF) Binding Assay
The assays were conducted in a standard black 384-well polystyrene plate with a final volume of 20 μL. Inhibitors were first serially diluted in DMSO and then added to the plate wells before the addition of other reaction components. The final concentration of DMSO in the assay was 1%. The assays were carried out at 25° C. in the PBS buffer (pH 7.4) with 0.05% Tween-20 and 0.1% BSA. Recombinant human PD-L1 protein (19-238) with a His-tag at the C-terminus was purchased from AcroBiosystems (PD1-H5229). Recombinant human PD-1 protein (25-167) with Fc tag at the C-terminus was also purchased from AcroBiosystems (PD1-H5257). PD-L1 and PD-1 proteins were diluted in the assay buffer and 10 μL was added to the plate well. Plates were centrifuged and proteins were preincubated with inhibitors for 40 minutes. The incubation was followed by the addition of […] of HTRF detection buffer supplemented with Europium cryptate-labeled anti-human IgG (PerkinElmer-AD0212) specific for Fc and anti-His antibody conjugated to SureLight®-Allophycocyanin (APC, PerkinElmer-AD0059H). After centrifugation, the plate was incubated at 25° C. for 60 min. before reading on a PHERAstar FS plate reader (665 nm/620 nm ratio). Final concentrations in the assay were […] PD1, 10 nM PD-L1, 1 nM europium anti-human IgG and 20 nM anti-His-Allophycocyanin. IC50 determination was performed by fitting the curve of percent control activity versus the log of the inhibitor concentration using the GraphPad Prism 5.0 software.
(In general: In TR-FRET formats the signal depends on donor and acceptor labels being close together.)

T1 sequence (Q9NZQ7 19-238): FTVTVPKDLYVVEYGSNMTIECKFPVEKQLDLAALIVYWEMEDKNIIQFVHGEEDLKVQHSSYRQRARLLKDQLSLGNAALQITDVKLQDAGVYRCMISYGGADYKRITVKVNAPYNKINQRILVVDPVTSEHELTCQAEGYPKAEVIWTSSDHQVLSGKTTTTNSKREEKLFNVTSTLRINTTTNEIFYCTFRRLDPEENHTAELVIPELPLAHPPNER

Take `Cn1ncc2c(-c3cccc(NC(=O)c4ccc(CNCCO)cn4)c3C#N)cccc21` [Example 49, N-[2-cyano-3-(1-methyl-1H-indazol-4-yl)phenyl]-5-{[(2-hydroxyethyl)amino]methyl}pyridine-2-carboxamide]: the IC50 is no more than 10 nM.
On to `Cc1cnc(C(=O)Nc2cccc(-c3ccccc3)c2C)cc1CNCCO` [Example 37, 4-{[(2-hydroxyethyl)amino]methyl}-5-methyl-N-(2-methylbiphenyl-3-yl)pyridine-2-carboxamide], for which the IC50 is 10 to 100 nM.
With `Cc1nc(C(=O)Nc2cccc(-c3ccccc3)c2C)ccc1CNCCO` [Example 14, 5-{[(2-hydroxyethyl)amino]methyl}-6-methyl-N-(2-methylbiphenyl-3-yl)pyridine-2-carboxamide] the figure was 10 to 100 nM; with `Cc1c(NC(=O)c2ncc(CNCCO)cc2N(C)C)cccc1-c1ccccc1` [Example 21, 3-(dimethylamino)-5-{[(2-hydroxyethyl)amino]methyl}-N-(2-methylbiphenyl-3-yl)pyridine-2-carboxamide], 100 to 1000 nM.
Turning to `Cc1c(NC(=O)c2cc(OCc3ccccn3)c(CNCCO)cn2)cccc1-c1ccccc1` [Example 20, 5-{[(2-hydroxyethyl)amino]methyl}-N-(2-methylbiphenyl-3-yl)-4-(pyridin-2-ylmethoxy)pyridine-2-carboxamide], the IC50 is 10 to 100 nM.
Then `Cc1cc(CN2CCCC[C@H]2C(=O)O)cnc1C(=O)Nc1cccc(-c2ccccc2)c1C` [Example 3, (2S)-1-[(5-methyl-6-{[(2-methylbiphenyl-3-yl)amino]carbonyl}pyridin-3-yl)methyl]piperidine-2-carboxylic Acid], with 100 to 1000 nM; and `N#Cc1c(NC(=O)c2ccc(CN3CCCC[C@H]3C(=O)O)cn2)cccc1-c1ccccc1` [Example 7, (2S)-1-[(6-{[(2-cyanobiphenyl-3-yl)amino]carbonyl}pyridin-3-yl)methyl]piperidine-2-carboxylic Acid], with 10 to 100 nM; and `Cc1c(NC(=O)c2ccc(CNCCO)cn2)cccc1-c1ccccc1` [Example 2, 5-{[(2-hydroxyethyl)amino]methyl}-N-(2-methylbiphenyl-3-yl)pyridine-2-carboxamide], with 10 to 100 nM.
As for `Cc1cc(C(=O)Nc2cccc(-c3ccccc3)c2C)ncc1CN1CCCC[C@H]1C(=O)O` [Example 32, (2S)-1-[(4-methyl-6-{[(2-methylbiphenyl-3-yl)amino]carbonyl}pyridin-3-yl)methyl]piperidine-2-carboxylic Acid], the concentration for half-maximal inhibition (IC50) is no more than 10 nM.
For `N#Cc1c(NC(=O)c2ccc(CNCCO)cn2)cccc1C1CCCCC1` [Example 41, N-(2-cyano-3-cyclohexylphenyl)-5-{[(2-hydroxyethyl)amino]methyl}pyridine-2-carboxamide], the half-maximal inhibitory concentration (IC50) fell in the range of 10 to 100 nM.
With `N#Cc1c(NC(=O)c2ccc(CNCCO)cn2)cccc1C1=COCCC1` [Example 44, N-[2-cyano-3-(3,4-dihydro-2H-pyran-5-yl)phenyl]-5-{[(2-hydroxyethyl)amino]methyl}pyridine-2-carboxamide] the figure was 10 to 100 nM; with `Cc1nc(C(=O)Nc2cccc(-c3ccccc3)c2C)ccc1CN1CCCC[C@H]1C(=O)O` [Example 13, (2S)-1-[(2-methyl-6-{[(2-methylbiphenyl-3-yl)amino]carbonyl}pyridin-3-yl)methyl]piperidine-2-carboxylic Acid], 100 to 1000 nM; with `Cc1c(NC(=O)c2ncc(CNCCO)cc2Cl)cccc1-c1ccccc1` [Example 16, 3-chloro-5-{[(2-hydroxyethyl)amino]methyl}-N-(2-methylbiphenyl-3-yl)pyridine-2-carboxamide], 10 to 100 nM.
With `CN1CCOc2cc(-c3cccc(NC(=O)c4ccc(CNCCO)cn4)c3C#N)ccc21` [Example 46, N-[2-cyano-3-(4-methyl-3,4-dihydro-2H-1,4-benzoxazin-7-yl)phenyl]-5-{[(2-hydroxyethyl)amino]methyl}pyridine-2-carboxamide] the figure was 100 to 1000 nM; with `Cc1c(NC(=O)c2ncccn2)cccc1-c1ccccc1` [Example 28, N-(2-methylbiphenyl-3-yl)pyrimidine-2-carboxamide], 100 to 1000 nM.
